Laboratory results: ChEMBL document CHEMBL5608197, “Optimization of pyrazolopyridine 4-carboxamides with potent antimalarial activity for which resistance is associated with the P. falciparum transporter ABCI3” (Eur J Med Chem, 2024)
Values after ≈ are worked out from the molar mass of the structure shown. Active and inactive are the calls of the source. The calls are words filed in the database; no cut-off is given here.

Experiments:
[1] = Intrinsic clearance in human liver microsomes at 1 uM measured for 60 mins by LC-MS/MS analysis; type: ADME, Microsome; conditions: read-out: CLH
[2] = Lipophilicity, elogD of the compound in 1-Octanol/PBS at pH 7.4 at 7.5 uM incubated for 2 hrs by miniaturized shake flask method; type: physicochemical
[3] = Intrinsic clearance in rat hepatocytes at 1 uM measured per million cells for 90 mins by LC-MS/MS analysis; type: ADME, cell-based, Hepatocyte; conditions: read-out: CLH
Plasmodium berghei [4] = assay: Antimalarial activity against asexual blood stage of Plasmodium berghei ANKA infected in Balb/c mouse assessed as reduction in parasitemia at 25 mg/kg, po qd administered at 2 hrs post-infection on day 0 and then on days 1,2 and 3 post-infection and measured on day 2 to 4 post-infection; type: functional, organism-based; conditions: time 3-5 day
Plasmodium falciparum [5] = assay: Antiplasmodial activity against asexual blood stage of Plasmodium falciparum 3D7 assessed as inhibition of parasite growth incubated for 72 hrs by LDH assay; type: functional, organism-based; conditions: 3D7, 72 h
[6] = Aqueous solubility of the compound in PBS buffer at pH 7.4 at 200 uM incubated for 2 hrs under shaking condition by miniaturized shake flask method; type: physicochemical
Plasmodium berghei [7] = assay: (§1) Antimalarial activity against asexual blood stage of Plasmodium berghei ANKA infected in Balb/c mouse assessed as reduction in parasitemia at 25 mg/kg, po qd administered at 2 hrs post-infection on day 0 and then on days 1,2 and 3 post-infection and measured on day 5 to 7 post-infection by peter's test relative to control; type: functional; conditions: time 6-8 day
[8] = Toxicity in Balb/c mouse infected with asexual blood stage of Plasmodium berghei ANKA assessed as body weight at 25 mg/kg, po qd administered at 2 hrs post-infection on day 0 and then on days 1,2 and 3; type: organism-based; conditions: in vivo, 96 h, time 4 day
[9] = Cytotoxicity against human HepG2 cells assessed as inhibition of cell growth incubated for 48 hrs by CellTiter-Glo luminescence assay; type: toxicity, cell-based
[10] = Intrinsic clearance in mouse liver microsomes at 1 uM measured for 60 mins by LC-MS/MS analysis; type: ADME, Microsome; conditions: read-out: CLH
[11] = Toxicity in Balb/c mouse infected with asexual blood stage of Plasmodium berghei ANKA assessed as adverse effects at 25 mg/kg, po administered at 2 hrs post-infection on day 0 and then on days 1,2 and 3; type: organism-based; conditions: in vivo, 96 h, time 4 day
[12] = Ratio of EC50 for antiplasmodial activity against ring stage of Plasmodium falciparum 3D7 expressing ABCI3-HAreg in absence of ABCI3 inhibitor, GlcN to EC50 for antiplasmodial activity against ring stage of Plasmodium falciparum 3D7 expressing ABCI3-HAreg in presence of ABCI3 inhibitor, GlcN; type: functional
Plasmodium falciparum [13] = assay: Antiplasmodial activity against multidrug-resistant Plasmodium falciparum Dd2 harboring CARL-I1139K mutant infected in erythrocytes assessed as inhibition of parasite growth incubated for 72 hrs by [3H]hypoxanthine incorporation based microbeta counting analysis; type: functional, organism-based; conditions: Dd2, Erythrocyte
Plasmodium falciparum [14] = assay: Antiplasmodial activity against multidrig-resistant Plasmodium falciparum Dd2 harboring eEF2Y-I86N mutant infected in erythrocytes assessed as inhibition of parasite growth incubated for 72 hrs by [3H]hypoxanthine incorporation based microbeta counting analysis; type: functional, organism-based; conditions: Dd2, Erythrocyte
Plasmodium falciparum [15] = assay: Antiplasmodial activity against multidrug-resistant Plasmodium falciparum TM90-C2B infected in erythrocytes assessed as inhibition of parasite growth incubated for 72 hrs by [3H]hypoxanthine incorporation based microbeta counting analysis; type: functional, organism-based; conditions: Erythrocyte
Plasmodium falciparum [16] = assay: Antiplasmodial activity against ring stage of Plasmodium falciparum 3D7 expressing ABCI3-HAreg assessed as inhibition of parasite proliferation incubated for 72 hrs in presence of ABCI3 inhibitor, GlcN by SYBR dye based flow cytometry; type: functional, organism-based; conditions: 3D7, 72 h
Plasmodium falciparum [17] = assay: Antiplasmodial activity against multidrug-resistant Plasmodium falciparum Cam3.1 infected in erythrocytes assessed as inhibition of parasite growth incubated for 72 hrs by [3H]hypoxanthine incorporation based microbeta counting analysis; type: functional, organism-based; conditions: Cam3.1, Erythrocyte
Plasmodium falciparum [18] = assay: Antiplasmodial activity against multidrug-resistant Plasmodium falciparum 7G8 infected in erythrocytes assessed as inhibition of parasite growth incubated for 72 hrs by [3H]hypoxanthine incorporation based microbeta counting analysis; type: functional, organism-based; conditions: 7G8, Erythrocyte
Plasmodium falciparum [19] = assay: Antiplasmodial activity against multidrug-resistant Plasmodium falciparum NF54 infected in erythrocytes assessed as inhibition of parasite growth incubated for 72 hrs by [3H]hypoxanthine incorporation based microbeta counting analysis; type: functional, organism-based; conditions: NF54, Erythrocyte
Plasmodium falciparum [20] = assay: Antimalarial activity against asexual stage of Plasmodium falciparum 3D7 infected in erythrocytes assessed as lag phase of parasite growth at 10XEC50 incubated for 24 hrs followed by drug removal and incubation for 48 hrs with CFDA-SE labelled fresh erythrocytes by Hoechst 33342 staining based two-color flow cytometry; type: functional, organism-based; conditions: Erythrocyte
Plasmodium falciparum [21] = assay: Antiplasmodial activity against multidrug-resistant Plasmodium falciparum Dd2 harboring DHODH-C276F mutant infected in erythrocytes assessed as inhibition of parasite growth incubated for 72 hrs by [3H]hypoxanthine incorporation based microbeta counting analysis; type: functional, organism-based; conditions: Dd2, Erythrocyte
Plasmodium falciparum [22] = assay: Antiplasmodial activity against multidrug-resistant Plasmodium falciparum Dd2 harboring PI4K-S743F mutant infected in erythrocytes assessed as inhibition of parasite growth incubated for 72 hrs by [3H]hypoxanthine incorporation based microbeta counting analysis; type: functional, organism-based; conditions: Dd2, Erythrocyte
Plasmodium falciparum [23] = assay: Antiplasmodial activity against Plasmodium falciparum Dd2 infected in erythrocytes assessed as inhibition of parasite growth incubated for 72 hrs by [3H]hypoxanthine incorporation based microbeta counting analysis; type: functional, organism-based; conditions: Dd2, Erythrocyte
Plasmodium falciparum [24] = assay: Antiplasmodial activity against multidrug-resistant Plasmodium falciparum K1 infected in erythrocytes assessed as inhibition of parasite growth incubated for 72 hrs by [3H]hypoxanthine incorporation based microbeta counting analysis; type: functional, organism-based; conditions: K1, Erythrocyte
Plasmodium falciparum [25] = assay: Antimalarial activity against asexual stage of Plasmodium falciparum 3D7 infected in erythrocytes assessed as parasite killing at 10XEC50 incubated for 48 hrs with compound renewal for every 24 hrs followed by drug removal and incubation for 48 hrs with CFDA-SE labelled fresh erythrocytes by Hoechst 33342 staining based two-color flow cytometry; type: functional, organism-based; conditions: Erythrocyte
Plasmodium falciparum [26] = assay: Antiplasmodial activity against ring stage of Plasmodium falciparum 3D7 expressing ABCI3-HAreg assessed as inhibition of parasite proliferation incubated for 72 hrs in absence of ABCI3 inhibitor, GlcN by SYBR dye based flow cytometry; type: functional, organism-based; conditions: 3D7, 72 h
Plasmodium falciparum [27] = assay: Antiplasmodial activity against multidrug-resistant Plasmodium falciparum Dd2 harboring cyt b-I22L mutant infected in erythrocytes assessed as inhibition of parasite growth incubated for 72 hrs by [3H]hypoxanthine incorporation based microbeta counting analysis; type: functional, organism-based; conditions: Dd2, Erythrocyte
Plasmodium berghei [28] = assay: as §1, with “30” for “25”, “4” for “5”, “test” for “test relative to control”; type: functional, organism-based; conditions: time 5-8 day
Plasmodium berghei [29] = assay: Antimalarial activity against asexual blood stage of Plasmodium berghei ANKA infected in Balb/c mouse assessed as reduction in parasitemia at 30 mg/kg, po qd administered at 2 hrs post-infection on day 0 and then on days 1,2 and 3 post-infection and measured on day 2 to 4 post-infection; type: functional, organism-based; conditions: time 3-5 day

With `Cc1nn(C(C)C)c2nc(C3CC3)cc(C(=O)N3CCOc4ccncc43)c12` the microsomal CLint at 1 µM [1] was 27 µL/min/mg, the logD at 2 h, 7.5 µM [2] was 4.5 and the hepatocyte CLint at 1 µM [3] was 30 µL/min/1e6 cells. For the same compound, the Activity (Plasmodium berghei [4]) was “inactive”, the EC50 (Plasmodium falciparum [5]) was 19 nM and the solubility thermodynamic at 2 h, 200 µM [6] was 199 µM (≈ 75.1 µg/mL). The inhibition in vivo at 25 mg/kg (Plasmodium berghei [7]) was about 50%, the Activity [8] was “Non-Toxic” and the CC50 at 48 h [9] was 17600 nM. The microsomal CLint at 1 µM [10] was 323 µL/min/mg and the Activity [11] was “Non-Toxic”.
With `Cc1nn(C(C)(C)C)c2nc(C3CC3)cc(C(=O)N3CCOc4ccccc43)c12` the “Ratio EC50” value [12] was 3.4, the EC50 (Plasmodium falciparum [13]) was 79 nM and the microsomal CLint at 1 µM [1] was 206 µL/min/mg. The logD at 2 h, 7.5 µM [2] was 5.4, the hepatocyte CLint at 1 µM [3] was 49 µL/min/1e6 cells and the EC50 (Plasmodium falciparum [14]) was 104 nM. It also gave an EC50 (Plasmodium falciparum [5]) of 130 nM, an EC50 (Plasmodium falciparum [15]) of 119 nM and an EC50 (Plasmodium falciparum [16]) of 13.9 nM. The EC50 (Plasmodium falciparum [17]) was 89 nM, the EC50 (Plasmodium falciparum [18]) was 114 nM and the solubility thermodynamic at 2 h, 200 µM [6] was under 2.5 µM. The EC50 (Plasmodium falciparum [19]) was 46 nM, the Activity (Plasmodium falciparum [20]) was “Active” and the EC50 (Plasmodium falciparum [21]) was 105 nM. The EC50 (Plasmodium falciparum [22]) was 101 nM, the EC50 (Plasmodium falciparum [23]) was 88 nM and the EC50 (Plasmodium falciparum [24]) was 134 nM. For the same compound, the Activity (Plasmodium falciparum [25]) was “Active”, the EC50 (Plasmodium falciparum [26]) was 47.6 nM and the EC50 (Plasmodium falciparum [27]) was 91 nM. For the same compound, the CC50 at 48 h [9] was over 40000 nM.
In the case of `C[C@H]1[C@H](OC(=O)CCC(=O)O)O[C@@H]2O[C@@]3(C)CC[C@H]4[C@H](C)CC[C@@H]1[C@@]24OO3`, the Activity (Plasmodium berghei [28]) is reported as “inactive” and the Activity (Plasmodium berghei [29]) is reported as “Active”.
